Experimental data reported in patent US20250270648A1, “MOLECULAR SIGNATURE FOR ASSESSING THE RESPONSIVENESS OF CANCER TO MITOCHONDRIA-TARGETED ANTIOXIDANTS” (UNIVERSITÉ CATHOLIQUE DE LOUVAIN, priority 2021, published 2025).

What was measured:
[1] = test system: MCF10A normal breast epithelial cells; assay: Mitochondrial potential, JC-10; format: cell-based, human; conditions: MitoQ 100 nM, 48 h
Description: (§1) The mitochondrial potential (ΔΨ) was measured using JC-10 Mitochondrial Membrane Potential Assay Kit (Abcam®, #ab112134), according to manufacturer's recommendations. Briefly, MDA-MB-231 (10^4 cells/well), SkBr3 (10^4 cells/well), MDA-MB-436 (10^4 cells/well) or MCF10A (10^5 cells/well) cells were seeded in 96-well plates and treated for 48 h±MitoQ. Cells were then washed twice and incubated with JC-10 (1× solution) for 45 min. Fluorescence intensities were measured at 490/525 nm and […] using a SpectraMax i3 spectrophotometer equipped with a MiniMax imaging cytometer (Molecular Devices®).

[2] = test system: MDA-MB-436 breast cancer cells; assay: Mitochondrial potential, JC-10; format: cell-based, human; conditions: MitoQ 100 nM, 48 h
Description: as §1

[3] = test system: MDA-MB-231 cells; assay: Western blotting (AMPK, EMT proteins); format: cell-based, human; conditions: 48 h
Description: (§2) For western blotting (WB), whole-protein extracts from MDA-MB-231, SkBr3 and MDA-MB-436 cells were prepared using RIPA buffer (50 mM Tris pH 7.4, 150 mM NaCl, 1% Triton-X-100, 0.05% sodium deoxycholate, 1 mM EDTA, 0.1% SDS, protease inhibitor cocktail and PhosSTOP Phosphatase Inhibitor Cocktail (Roche®)), centrifuged at 10,000×g for 10 min, and quantified using the Bio-Rad® Protein Assay. Proteins (50 μg for MDA-MB-231 and 100 μg for SkBr3 and MDA-MB-436 cells) were loaded into each lane of a 10-12% polyacrylamide gel in the presence of SDS, and were allowed to separate at 120 V for 90 min. The transfer of proteins onto nitrocellulose membranes was performed using an iBlot 2 Dry Blotting System (Thermo Fisher Scientific®) with the 7 min P0 program. Membranes were then blocked using 5% (w/v) powdered milk for 1 h, and incubated overnight at 4° C. with a primary antibody (Table 4).
(§3) β-actin served as a loading control. Immunodetection was performed at room temperature for 1 h using as secondary antibodies a horseradish peroxidase-conjugated goat anti-rabbit (Jackson®, Cat #111-035-003) and goat anti-mouse (Jackson®, Cat #115-035-003) in PBS-Tween containing 5% (w/v) milk or BSA. Detection was performed with ECL reagent (Amersham®, Cat #RPN2209), and protein bands were visualized and captured using ECL imager 600 (Amersham®). They were analyzed using the Image J software (Java).

[4] = test system: SkBr3 cells; assay: Western blotting (AMPK, EMT proteins); format: cell-based, human; conditions: 48 h
Description: as §2, §3

[5] = test system: MDA-MB-231 cells; assay: Cell cycle, flow cytometry with propidium iodide; format: cell-based, human; conditions: MitoQ 100 nM, 48 h
Description: Cells were seeded in 6-well plates at a density of 500,000 cells/well and allowed to adhere overnight. Cells were then starved in 0.1% FBS medium for 24 h and treated for 48 h±MitoQ. Afterwards, they were detached with trypsin-EDTA (0.05%) (Gibco®, cat #25300054) and centrifuged at 1,200 rpm for 5 min. Culture medium was discarded, and the pellets washed. Cells were fixed by adding 700 μL of ice-cold ethanol 100% in 300 μL of cell suspension in PBS. Cells were then washed twice with 1 mL of Tris buffer with 0.2% (v/v) Triton X-100, and finally resuspended in 300 μL of PBS with RNase (0.2 mg/mL) and propidium iodide (5 μg/mL). At least 10^4 events were acquired using a FACSCalibur™ flow cytometer (Becton Dickinson®), and the FlowJo cell cycle analysis tool was used to analyze data according to DNA content.

[6] = test system: MDA-MB-231 cancer cells; assay: Cell morphology, H&E; format: cell-based, human; conditions: MitoQ 100 to 500 nM, 48 h
Description: (§4) To visualize cell morphology, MDA-MB-231, SkBr3 and MDA-MB-436 cells were seeded in 24-well plates and treated ±MitoQ for 48 h, fixed in 100% methanol for 10 min stained with hematoxylin and eosin (H&E) for 10 min each, washed with water and dried. Pictures were acquired on an Axiovert 40 CFL microscope (Zeiss®) equipped with a MRC camera (Zeiss®).

[7] = test system: SkBr3 cancer cells; assay: Cell morphology, H&E; format: cell-based, human; conditions: MitoQ 100 to 500 nM, 48 h
Description: as §4

[8] = test system: MDA-MB-231 human triple-negative breast cancer; assay: Spontaneous metastasis and recurrence, orthotopic MDA-MB-231 model; format: in vivo, mouse; conditions: MitoQ 20 mg/kg daily oral
Description: For spontaneous metastasis assays using human breast cancer cells, MDA-MB-231, SkBr3 or MDA-MB-436 cells were prepared in medium containing 10% growth factor-reduced Matrigel (Corning®, cat #734-11-01). Five weeks-old female Rj:NMRI-Foxnlnu/nu mice (Janvier) were injected with 10^6 cancer cells in 100 μL of solution in the left second mammary fat pad. After tumor take (72 h), mice were daily treated ±20 mg/Kg MitoQ by oral gavage. Tumor size was measured once per week with an electronic caliper. Four weeks after treatment initiation, primary tumors were surgically removed and processed for RT-qPCR. Tumor recurrence was monitored until recurred tumors in the vehicle group reached about […], i.e. 24 days after surgery. At this time point, mice were sacrificed and their lungs collected and fixed in PFA 4% for immunocytochemistry.
Collected lungs were processed for immunohistochemistry as previously shown. They were stained for Cytokeratin 19 (CK19) using a primary rabbit recombinant anti-CK19 antibody (Abcam®, cat #ab76539) and a secondary Envision anti-rabbit antibody coupled to HRP (Dako®, cat #K4003), and counter-stained with H&E. Images of whole lung slides were acquired on a SCN400 Slide Scanner (Leica®) and analyzed with the QuPath Software (0.1.2). Quantification was performed according to Chang and Erler (Adv Exp Med Biol, 2016; 899, 245-251), and the number of lung metastases was proportional to the positive areas of CK19 staining.

[9] = test system: MDA-MB-231 cells; assay: Cell numbers, chemotherapy ±MitoQ, crystal violet; format: cell-based, human; conditions: increasing doses of chemotherapy ±100 nM MitoQ; 24-72 h
Description: (§5) To test the effects of combination treatments on cell numbers, MDA-MB-231 or SkBr3 cancer cells were plated in 96-well plates and treated with increasing concentrations of chemotherapeutic drug ±MitoQ for 24 h (epirubicin), 48 h (doxorubicin, 5-FU, cisplatin, paclitaxel) or 72 h (gemcitabine). Cells were then fixed in 11% glutaraldehyde and stained with crystal violet. The dye retained by the cells was solubilized in 10% acetic acid, and the optical density (570 nm) was measured using a SpectraMax i3 spectrophotometer equipped with a MiniMax™ imaging cytometer.

[10] = test system: SkBr3 cells; assay: Cell numbers, chemotherapy ±MitoQ, crystal violet; format: cell-based, human; conditions: increasing doses of chemotherapy ±100 nM MitoQ; 24-72 h
Description: as §5

COC1=C(OC)C(=O)C(CCCCCCCCCC[P+](c2ccccc2)(c2ccccc2)c2ccccc2)=C(C)C1=O [MitoQ]
mitochondrial potential (Δψ) [1]: not affected
AT (FIG. 14D, mitochondrial potential) [2]: repressed
5′ AMP-activated protein kinase (AMPK), P-T172-AMPK/total AMPK ([3]; MitoQ 100 nM): activation
SNAIL, ZEB1, Twist1 and E-cadherin protein expression ([3]; MitoQ 500 nM): decreased
AMPK activation ([4]; MitoQ 100 nM): did not significantly activate
SNAIL protein expression ([4]; MitoQ 500 nM): decreased
cell cycle [5]: not altered
Morphological changes [6]: not obvious
Morphological changes [7]: not obvious
primary tumor growth ([8]; P=0.3150): not significantly affected
recurrence-free survival ([8]; after surgery): significantly improved
mice with no metastasis ([8]; day +56, 9.5% in the control group): 75.0%
metastatic dissemination (lungs) ([8]; sacrifice day +56): highly significantly prevented
animals in which primary tumors relapsed after surgery ([8]; surgery day +32, 100% in the control group): 25%
cytostatic/cytotoxic effects of doxorubicin, epirubicin, 5-fluorouracil (5-FU), cisplatin, paclitaxel and gemcitabine [9]: did not alter
cytostatic/cytotoxic effects of doxorubicin, epirubicin, 5-fluorouracil (5-FU), cisplatin, paclitaxel and gemcitabine [10]: did not alter
